In US12448373B2, “Azetidinyl-acetamides as CXCR7 inhibitors” (CHEMOCENTRYX, INC., priority 2021, dated 2025) one finds IC50 data, which are given here for 48 molecules.

pIC50: −log10 of the molar value.

T1 sequence (P25106 whole entry): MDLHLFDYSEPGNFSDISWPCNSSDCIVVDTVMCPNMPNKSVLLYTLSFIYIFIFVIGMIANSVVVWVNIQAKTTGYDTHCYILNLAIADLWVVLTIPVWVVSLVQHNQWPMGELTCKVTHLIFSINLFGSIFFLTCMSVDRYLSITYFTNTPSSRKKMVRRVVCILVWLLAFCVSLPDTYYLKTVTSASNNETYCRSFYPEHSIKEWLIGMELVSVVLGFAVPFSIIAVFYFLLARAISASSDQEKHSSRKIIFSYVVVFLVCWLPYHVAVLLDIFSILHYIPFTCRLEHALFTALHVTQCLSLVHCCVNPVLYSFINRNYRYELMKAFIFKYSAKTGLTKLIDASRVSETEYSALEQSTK

This test concerns the target T1, CXCR7 (Homo sapiens, UniProt P25106).
T1 construct: expressed in transfected cells; host or cells: CHO cells (CHO-CXCR7), transgenes maintained with Hygromycin B and G418
Briefly: CXCR7 β-arrestin recruitment assay in CHO-CXCR7 cells (ProLink/EA β-galactosidase complementation), induced by human SDF-1a. The format is cell-based. To be noted: assay buffer, SDF-1a at EC50 concentration. In outline:
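SDF-1α-induced β-arrestin recruitment was measured by enzyme-fragment complementation (ProLink-CXCR7 with β-arrestin-EA) in stable CHO cells. Agonist was dosed at its EC50, determined the same day, alongside serially diluted compound for 1.5 h at 37 °C. Fluorogenic galactoside substrate (0.4 mM, 30 min) was read at 360/465 nm, with IC50 from 3-parameter nonlinear regression.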
A general note: Arrestin recruitment assays detect the binding of arrestin to an activated receptor.
In general, pIC50 refers to −log10 of the IC50, conventionally taken in molar units. A low value points to a large IC50. In turn, `CC(C)(NC(=O)CC1(NC(=O)c2cc(-c3ccc(F)cc3F)on2)CN(C2CC2)C1)c1ccccn1` [Example 1.313] had a negative logarithm of the IC50 (pIC50) of 7.00 to 8.30.

The molecule `CC(C)(NC(=O)CC1(NC(=O)c2cc(-c3ccc(F)cc3F)on2)CN(c2ccccn2)C1)c1ccccn1` [Example 1.314] showed a negative-log IC50 (pIC50) of 4.70 to 6.00.

`CC(C)(NC(=O)CC1(NC(=O)c2cc(-c3ccc(F)cc3F)on2)CN(c2ncccn2)C1)c1ccccn1` [Example 1.315] had a negative logarithm of the IC50 (pIC50) of 4.70 to 6.00.

Take `O=C(CC1(NC(=O)c2cc(-c3ccc(F)cc3F)on2)CN(C2CCCCC2)C1)N[C@H](CO)c1ccccc1` [Example 1.316]: the negative-log IC50 (pIC50) is 7.00 to 8.30.

`CC(C)(NC(=O)CC1(NC(=O)c2cc(-c3ccc(F)cc3F)on2)CN(C2CCOCC2)C1)c1ccccn1` [Example 1.317] gave a pIC50 of 7.00 to 8.30.

Turning to `CC(C)(NC(=O)CC1(NC(=O)c2cc(-c3ccc(F)cc3F)on2)CN(C2CCCCC2)C1)c1ccccc1` [Example 1.318], the pIC50 is greater than 8.30.

`CC(C)(NC(=O)CC1(NC(=O)c2cc(-c3ccc(F)cc3F)on2)CN(C2CCC(F)(F)CC2)C1)c1ccccn1` [Example 1.319]: the negative-log IC50 (pIC50) was 7.00 to 8.30.

With `O=C(CC1(NC(=O)c2cc(-c3ccc(F)cc3F)on2)CN(C2CCCCC2)C1)NC1(c2ccccc2)COC1` [Example 1.320], the negative-log IC50 (pIC50) is 7.00 to 8.30.

In the case of `O=C(CC1(NC(=O)c2cc(-c3ccc(F)cc3F)on2)CN(CC2CC2)C1)NC1(c2ccccc2)CC1` [Example 1.321], the pIC50 is 6.00 to 7.00.

In turn, `CC(C)(NC(=O)CC1(NC(=O)c2cc(-c3ccc(F)cc3F)on2)CN(CC2CC2)C1)c1ccccc1` [Example 1.322] had a negative-log IC50 (pIC50) of 7.00 to 8.30.

On to `C[C@@H](NC(=O)CC1(NC(=O)c2cc(-c3ccc(F)cc3F)on2)CN(CC2CC2)C1)c1ccccn1` [Example 1.323], for which the negative-log IC50 (pIC50) is 6.00 to 7.00.

`C[C@H](NC(=O)CC1(NC(=O)c2cc(-c3ccc(F)cc3F)on2)CN(CC2CC2)C1)c1ccccn1` [Example 1.324] gave a negative logarithm of the IC50 (pIC50) of 4.70 to 6.00.

For the molecule `O=C(CC1(NC(=O)c2cc(-c3ccc(F)cc3F)on2)CN(C2CCCCC2)C1)NC1(c2ccccc2)CC1` [Example 1.325], the pIC50 is 7.00 to 8.30.

On to `CC(C)(NC(=O)CC1(NC(=O)c2cc(-c3ccc(F)cc3F)on2)CN(C2CCCCC2)C1)c1ccccn1` [Example 1.326], for which the negative-log IC50 (pIC50) is greater than 8.30.

On to `CC(C)(NC(=O)CC1(NC(=O)c2cc(-c3ccc(F)cc3F)on2)CN(CC2CC2)C1)c1ccccn1` [Example 1.327], for which the pIC50 is 7.00 to 8.30.

`O=C(CC1(NC(=O)c2cc(-c3ccc(F)cc3F)on2)CN(C2CCOCC2)C1)NC1(c2ncccn2)CC1` [Example 1.328] showed a negative logarithm of the IC50 (pIC50) of 6.00 to 7.00.

`O=C(CC1(NC(=O)c2cc(-c3ccc(F)cc3F)on2)CN(Cc2ccccc2)C1)NC1(c2ncccn2)CC1` [Example 1.329] showed a pIC50 of 6.00 to 7.00.

Consider `CC(C)(C)CN1CC(CC(=O)NC2(c3ncccn3)CC2)(NC(=O)c2cc(-c3ccc(F)cc3F)on2)C1` [Example 1.330], for which the negative logarithm of the IC50 (pIC50) was 7.00 to 8.30.

`O=C(CC1(NC(=O)c2cc(-c3ccc(F)cc3F)on2)CN(C2CCCC2)C1)NC1(c2ncccn2)CC1` [Example 1.331] had a pIC50 of 7.00 to 8.30.

For the molecule `O=C(CC1(NC(=O)c2cc(-c3ccc(F)cc3F)on2)CN(C2CCCCC2)C1)NC1(c2ncccn2)CC1` [Example 1.332], the negative logarithm of the IC50 (pIC50) is 7.00 to 8.30.

`CC(C)N1CC(CC(=O)NC2(c3ncccn3)CC2)(NC(=O)c2cc(-c3ccc(F)cc3F)on2)C1` [Example 1.333] had a pIC50 of 6.00 to 7.00.

Molecule `O=C(CC1(NC(=O)c2cc(-c3ccc(F)cc3F)on2)CN(CC2CC2)C1)NC1(c2ncccn2)CC1` [Example 1.334] had a negative-log IC50 (pIC50) of 7.00 to 8.30.

As for `Cc1cc(C(C)(C)NC(=O)CC2(NC(=O)c3nnc(-c4ccc(F)cc4F)s3)CN([C@H]3CC[C@](C)(O)CC3)C2)ccn1` [Example 1.335], the negative-log IC50 (pIC50) was 7.00 to 8.30.

In turn, `CC(C)(NC(=O)CC1(NC(=O)c2nnc(-c3ccc(F)cc3F)s2)CN([C@H]2CC[C@](C)(O)CC2)C1)c1cc(Cl)ccc1F` [Example 1.336] had a negative logarithm of the IC50 (pIC50) of 7.00 to 8.30.

Molecule `Cc1cc(C#N)cc(C(C)(C)NC(=O)CC2(NC(=O)c3nnc(-c4ccc(F)cc4F)s3)CN([C@H]3CC[C@](C)(O)CC3)C2)n1` [Example 1.337] had a negative logarithm of the IC50 (pIC50) greater than 8.30.

Turning to `Cc1ccnc(C(C)(C)NC(=O)CC2(NC(=O)c3nnc(-c4ccc(F)cc4F)s3)CN([C@H]3CC[C@](C)(O)CC3)C2)c1` [Example 1.338], the pIC50 is 7.00 to 8.30.

Molecule `COc1cc(C)nc(C(C)(C)NC(=O)CC2(NC(=O)c3cc(-c4ccc(F)cc4F)on3)CN([C@H]3CC[C@](C)(O)CC3)C2)c1` [Example 1.339] showed a negative logarithm of the IC50 (pIC50) of 7.00 to 8.30.

As for `Cc1c(C(=O)NC2(CC(=O)NC(C)(C)c3cccc(Cl)c3)CN(C3CCCCC3)C2)noc1-c1ccc(F)cc1F` [Example 1.340], the negative logarithm of the IC50 (pIC50) is 4.70 to 6.00.

Consider `Cc1cc(C)nc(C(C)(C)NC(=O)CC2(NC(=O)c3noc(-c4ccc(F)cc4F)c3C)CN(C3CCCCC3)C2)n1` [Example 1.341], for which the pIC50 is 4.70 to 6.00.

`COc1cc(OC)nc(C(C)(C)NC(=O)CC2(NC(=O)c3nnc(-c4ccc(F)cc4F)s3)CN([C@H]3CC[C@](C)(O)CC3)C2)c1` [Example 1.342] had a negative-log IC50 (pIC50) of 7.00 to 8.30.

Molecule `Cc1cc(C(F)(F)F)cc(C(C)(C)NC(=O)CC2(NC(=O)c3cc(-c4ccc(F)cc4F)on3)CN([C@H]3CC[C@](C)(O)CC3)C2)n1` [Example 1.343] had a pIC50 of 7.00 to 8.30.

For the molecule `Cc1cc(C(C)C)cc(C(C)(C)NC(=O)CC2(NC(=O)c3cc(-c4ccc(F)cc4F)on3)CN([C@H]3CC[C@](C)(O)CC3)C2)n1` [Example 1.344], the pIC50 was 6.00 to 7.00.

`CC(C)(NC(=O)CC1(NC(=O)c2nnc(-c3ccc(F)cc3F)s2)CN([C@H]2CC[C@](C)(O)CC2)C1)c1cc(Cl)cc(C#N)c1` [Example 1.345] gave a negative logarithm of the IC50 (pIC50) of 7.00 to 8.30.

Consider `COc1cc(C)cc(C(C)(C)NC(=O)CC2(NC(=O)c3nnc(-c4ccc(F)cc4F)s3)CN([C@H]3CC[C@](C)(O)CC3)C2)n1` [Example 1.346], for which the pIC50 was 7.00 to 8.30.

As to `Cc1cc(C(C)C)cc(C(C)(C)NC(=O)CC2(NC(=O)c3nnc(-c4ccc(F)cc4F)s3)CN([C@H]3CC[C@](C)(O)CC3)C2)n1` [Example 1.347], the negative-log IC50 (pIC50) is 6.00 to 7.00.

On to `Cc1cc(Cl)cc(C(C)(C)NC(=O)CC2(NC(=O)c3nnc(-c4ccc(F)cc4F)s3)CN([C@H]3CC[C@](C)(O)CC3)C2)c1` [Example 1.348], for which the negative-log IC50 (pIC50) is 7.00 to 8.30.

As for `Cc1cc(C(F)(F)F)cc(C(C)(C)NC(=O)CC2(NC(=O)c3nnc(-c4ccc(F)cc4F)s3)CN([C@H]3CC[C@](C)(O)CC3)C2)n1` [Example 1.349], the negative logarithm of the IC50 (pIC50) is 7.00 to 8.30.

Take `Cc1cc(C2CC2)cc(C(C)(C)NC(=O)CC2(NC(=O)c3nnc(-c4ccc(F)cc4F)s3)CN([C@H]3CC[C@](C)(O)CC3)C2)n1` [Example 1.350]: the negative-log IC50 (pIC50) is 7.00 to 8.30.

Turning to `Cc1cc(C)nc(C(C)(C)NC(=O)CC2(NC(=O)c3cc(-c4ccc(F)cc4F)on3)CN(C3CCOCC3(C)C)C2)n1` (stereo not drawn) [Example 1.351], the pIC50 is 6.00 to 7.00.

For `Cc1cc(C#N)cc(C(C)(C)NC(=O)CC2(NC(=O)c3nnc(-c4ccc(F)cc4F)s3)CN([C@H]3CC[C@](C)(O)CC3)C2)n1` [Example 1.352], the pIC50 was 7.00 to 8.30.

`Cc1cc(C)nc(C(C)(C)NC(=O)CC2(NC(=O)c3cc(-c4ccc(F)cc4F)on3)CN(C3CCOC3(C)C)C2)n1` (stereo not drawn) [Example 1.353] gave a pIC50 of 6.00 to 7.00.

`Cc1cc(C)nc(C(C)(C)NC(=O)CC2(NC(=O)c3cc(-c4ccc(F)cc4F)on3)CN(C3CC(C)OC(C)C3)C2)n1` (stereo not drawn) [Example 1.354] showed a negative-log IC50 (pIC50) of 6.00 to 7.00.

`Cc1cc(C)nc(C(C)(C)NC(=O)CC2(NC(=O)c3cc(-c4ccc(F)cc4F)on3)CN(C3CC(C)(C)OC(C)(C)C3)C2)n1` [Example 1.355] had a pIC50 greater than 8.30.

Consider `C[C@]1(O)CC[C@H](N2CC(CC(=O)NC3(c4ncccn4)CC3)(NC(=O)c3cc(-c4ccc(F)cc4F)on3)C2)CC1` [Example 1.356], for which the pIC50 is 7.00 to 8.30.

`CC1(C)CC(N2CC(CC(=O)NC(C)(C)c3cccc(Cl)c3)(NC(=O)c3cc(-c4ccc(F)cc4F)on3)C2)CCO1` (stereo not drawn) [Example 1.357] showed a pIC50 of 7.00 to 8.30.

`Cc1cc(Cl)cc(C(C)(C)NC(=O)CC2(NC(=O)c3cc(-c4ccc(F)cc4F)on3)CN(C3CCOC(C)(C)C3)C2)n1` (stereo not drawn) [Example 1.358] showed a pIC50 greater than 8.30.

`Cc1cc(C)nc(C(C)(C)NC(=O)CC2(NC(=O)c3cc(-c4ccc(F)cc4F)on3)CN(C3CCOC(C)(C)C3)C2)n1` (stereo not drawn) [Example 1.359]: the pIC50 is 7.00 to 8.30.

Regarding `CC(C)(NC(=O)CC1(NC(=O)c2cc(-c3ccc(F)cc3F)on2)CN(C2(C)CCCCC2)C1)c1cccc(Cl)c1` [Example 1.360], the pIC50 was greater than 8.30.
